What was measured:
Assay in all cases: Post-emergence test experiment (greenhouse pot, spray at 2-3 leaf stage)
Assay type in all cases: in vivo
Settings in all cases: 1000 g/ha; post-emergence spray at 2-3 leaf stage; assessed after 3 weeks; fresh weight inhibition rate
Monochoria vaginalis = test system: Monochoria vaginalis
In short: (§1)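 Activity graded levels 0-5 by fresh-weight inhibition (level 5 above 85%, level 0 below 5%), assessed 3 weeks after treatment. Plants grown in greenhouse pots were sprayed post-emergence at 2-3 leaves using acetone/tween-80 solutions with methyl oleate synergist (1.5 L/ha).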

Echinochloa crusgalli = test system: Echinochloa crusgalli
In short: as §1

Galium spurium = test system: Galium spurium
In short: as §1

Abutilon theophrasti = test system: Abutilon theophrasti
In short: as §1

Digitaria sanguinalis = test system: Digitaria sanguinalis
In short: as §1

Compound | Activity level (growth inhibition rate) Monochoria Vaginalis (Monochoria vaginalis) | Activity level (growth inhibition rate) Echinochloa crusgalli (Echinochloa crusgalli) | Activity level (growth inhibition rate) Galium spurium (Galium spurium) | Activity level (growth inhibition rate) Abutilon theophrasti (Abutilon theophrasti) | Activity level (growth inhibition rate) Digitaria sanguinalis (Digitaria sanguinalis)
CC(Oc1nc(F)c(Cl)c(N)c1Cl)C(=O)OCc1nnnn1C (stereo not shown) [Compound 138] | 5 (Level 5: the growth inhibition rate is greater than 85%) | 5 (Level 5: the growth inhibition rate is greater than 85%) | 5 (Level 5: the growth inhibition rate is greater than 85%) | 5 (Level 5: the growth inhibition rate is greater than 85%) | 5 (Level 5: the growth inhibition rate is greater than 85%)
CC(Oc1nc(F)c(Cl)c(N)c1Cl)C(=O)SCc1ccco1 (stereo not shown) [Compound 139] | 5 (Level 5: the growth inhibition rate is greater than 85%) | 5 (Level 5: the growth inhibition rate is greater than 85%) | 5 (Level 5: the growth inhibition rate is greater than 85%) | 5 (Level 5: the growth inhibition rate is greater than 85%) | 5 (Level 5: the growth inhibition rate is greater than 85%)
CC(Oc1nc(F)c(Cl)c(N)c1Cl)C(=O)OCc1cnco1 (stereo not shown) [Compound 141] | 5 (Level 5: the growth inhibition rate is greater than 85%) | 5 (Level 5: the growth inhibition rate is greater than 85%) | 5 (Level 5: the growth inhibition rate is greater than 85%) | 5 (Level 5: the growth inhibition rate is greater than 85%) | 5 (Level 5: the growth inhibition rate is greater than 85%)
CC(Oc1nc(F)c(Cl)c(N)c1Cl)C(=O)SCCc1cocn1 (stereo not shown) [Compound 142] | 5 (Level 5: the growth inhibition rate is greater than 85%) | 5 (Level 5: the growth inhibition rate is greater than 85%) | 5 (Level 5: the growth inhibition rate is greater than 85%) | 5 (Level 5: the growth inhibition rate is greater than 85%) | 5 (Level 5: the growth inhibition rate is greater than 85%)
CC(Oc1nc(F)c(Cl)c(N)c1Cl)C(=O)OCc1ncco1 (stereo not shown) [Compound 143] | 5 (Level 5: the growth inhibition rate is greater than 85%) | 5 (Level 5: the growth inhibition rate is greater than 85%) | 5 (Level 5: the growth inhibition rate is greater than 85%) | 5 (Level 5: the growth inhibition rate is greater than 85%) | 5 (Level 5: the growth inhibition rate is greater than 85%)
CC(Oc1nc(F)c(Cl)c(N)c1Cl)C(=O)OCc1ccno1 (stereo not shown) [Compound 144] | 5 (Level 5: the growth inhibition rate is greater than 85%) | 5 (Level 5: the growth inhibition rate is greater than 85%) | 5 (Level 5: the growth inhibition rate is greater than 85%) | 5 (Level 5: the growth inhibition rate is greater than 85%) | 5 (Level 5: the growth inhibition rate is greater than 85%)
CC(Oc1nc(F)c(Cl)c(N)c1Cl)C(=O)SCc1ccon1 (stereo not shown) [Compound 145] | 5 (Level 5: the growth inhibition rate is greater than 85%) | 5 (Level 5: the growth inhibition rate is greater than 85%) | 5 (Level 5: the growth inhibition rate is greater than 85%) | 5 (Level 5: the growth inhibition rate is greater than 85%) | 5 (Level 5: the growth inhibition rate is greater than 85%)
CC(Oc1nc(F)c(Cl)c(N)c1Cl)C(=O)OCc1cnoc1 (stereo not shown) [Compound 146] | 5 (Level 5: the growth inhibition rate is greater than 85%) | 5 (Level 5: the growth inhibition rate is greater than 85%) | 5 (Level 5: the growth inhibition rate is greater than 85%) | 5 (Level 5: the growth inhibition rate is greater than 85%) | 5 (Level 5: the growth inhibition rate is greater than 85%)
Cc1noc(C)c1COC(=O)C(C)Oc1nc(F)c(Cl)c(N)c1Cl (stereo not shown) [Compound 147] | 5 (Level 5: the growth inhibition rate is greater than 85%) | 5 (Level 5: the growth inhibition rate is greater than 85%) | 5 (Level 5: the growth inhibition rate is greater than 85%) | 5 (Level 5: the growth inhibition rate is greater than 85%) | 5 (Level 5: the growth inhibition rate is greater than 85%)
CC(Oc1nc(F)c(Cl)c(N)c1Cl)C(=O)OCCc1nnco1 (stereo not shown) [Compound 148] | 5 (Level 5: the growth inhibition rate is greater than 85%) | 5 (Level 5: the growth inhibition rate is greater than 85%) | 5 (Level 5: the growth inhibition rate is greater than 85%) | 5 (Level 5: the growth inhibition rate is greater than 85%) | 5 (Level 5: the growth inhibition rate is greater than 85%)
CC(Oc1nc(F)c(Cl)c(N)c1Cl)C(=O)SCc1nnco1 (stereo not shown) [Compound 149] | 5 (Level 5: the growth inhibition rate is greater than 85%) | 5 (Level 5: the growth inhibition rate is greater than 85%) | 5 (Level 5: the growth inhibition rate is greater than 85%) | 5 (Level 5: the growth inhibition rate is greater than 85%) | 5 (Level 5: the growth inhibition rate is greater than 85%)
CC(Oc1nc(F)c(Cl)c(N)c1Cl)C(=O)SC(C)c1ncon1 (stereo not shown) [Compound 150] | 5 (Level 5: the growth inhibition rate is greater than 85%) | 5 (Level 5: the growth inhibition rate is greater than 85%) | 5 (Level 5: the growth inhibition rate is greater than 85%) | 5 (Level 5: the growth inhibition rate is greater than 85%) | 5 (Level 5: the growth inhibition rate is greater than 85%)
CC(Oc1nc(F)c(Cl)c(N)c1Cl)C(=O)OCc1ncno1 (stereo not shown) [Compound 151] | 5 (Level 5: the growth inhibition rate is greater than 85%) | 5 (Level 5: the growth inhibition rate is greater than 85%) | 5 (Level 5: the growth inhibition rate is greater than 85%) | 5 (Level 5: the growth inhibition rate is greater than 85%) | 5 (Level 5: the growth inhibition rate is greater than 85%)
CC(Oc1nc(F)c(Cl)c(N)c1Cl)C(=O)SCCc1cnno1 (stereo not shown) [Compound 152] | 5 (Level 5: the growth inhibition rate is greater than 85%) | 5 (Level 5: the growth inhibition rate is greater than 85%) | 5 (Level 5: the growth inhibition rate is greater than 85%) | 5 (Level 5: the growth inhibition rate is greater than 85%) | 5 (Level 5: the growth inhibition rate is greater than 85%)
CC(Oc1nc(F)c(Cl)c(N)c1Cl)C(=O)OCc1conn1 (stereo not shown) [Compound 153] | 5 (Level 5: the growth inhibition rate is greater than 85%) | 5 (Level 5: the growth inhibition rate is greater than 85%) | 5 (Level 5: the growth inhibition rate is greater than 85%) | 5 (Level 5: the growth inhibition rate is greater than 85%) | 5 (Level 5: the growth inhibition rate is greater than 85%)
CC(Oc1nc(F)c(Cl)c(N)c1Cl)C(=O)SCc1cccs1 (stereo not shown) [Compound 154] | 5 (Level 5: the growth inhibition rate is greater than 85%) | 5 (Level 5: the growth inhibition rate is greater than 85%) | 5 (Level 5: the growth inhibition rate is greater than 85%) | 5 (Level 5: the growth inhibition rate is greater than 85%) | 5 (Level 5: the growth inhibition rate is greater than 85%)
Cc1sc(C)c(COC(=O)C(C)Oc2nc(F)c(Cl)c(N)c2Cl)c1C (stereo not shown) [Compound 155] | 5 (Level 5: the growth inhibition rate is greater than 85%) | 5 (Level 5: the growth inhibition rate is greater than 85%) | 5 (Level 5: the growth inhibition rate is greater than 85%) | 5 (Level 5: the growth inhibition rate is greater than 85%) | 5 (Level 5: the growth inhibition rate is greater than 85%)

From patent US12049450B2, “Pyridyloxy-carboxylate derivative and preparation method therefor, herbicidal composition, and use” (Qingdao Kingagroot Chemical Compound Co., Ltd., priority 2018, dated 2024)
